Molecular target: T1, MOR receptors (Homo sapiens, UniProt P35372)
T1 construct: expressed in transfected cells; host or cells: CHO cells
Assay: cell-based
Assay type: cell-based
Details: CHO cells stably expressing MOR/Gα16; calcium flux caused by known agonist DAMGO; fluorescence at 525 nm
From the text: A cell line co-transfected with MOR and Gα16 is established, such that activation of receptors can activate Ga16 protein, which in turn activates phospholipase C (PLC) to generate IP3 and DAG. IP3 can bind to IP3 receptors on endoplasmic reticulum and mitochondria in the cells, thereby triggering the release of intracellular calcium. Therefore, detection of intracellular calcium levels can be employed as a measure for detecting the activation state of MOR. Fluo-4/AM is a calcium fluorescent probe indicator for measuring calcium ions. It is a non-polar liposoluble compound, which, upon entering a cell and by the action of lipolytic enzymes, releases Fluo-4 while the AM moiety is dissociated. As a polar molecule, Fluo-4 cannot easily pass through the lipid bilayer membrane, thus it is retained in the cells for a long duration. Eventually, the level of activation of Gα proteins is reflected by measuring the intensity of fluorescence that is excited.
1. inoculating CHO cells stably expressing MOR/Gα16 in a 96-well plate and incubating the same overnight;
2. removing the medium from the wells inoculated with cells, adding freshly prepared dye (40 μl/well), and incubating for 40 minutes in a thermostatic incubator of 37° C.;
3. diluting the test substances with a calcium buffer and homogenizing; […]

T1 sequence (P35372 whole entry): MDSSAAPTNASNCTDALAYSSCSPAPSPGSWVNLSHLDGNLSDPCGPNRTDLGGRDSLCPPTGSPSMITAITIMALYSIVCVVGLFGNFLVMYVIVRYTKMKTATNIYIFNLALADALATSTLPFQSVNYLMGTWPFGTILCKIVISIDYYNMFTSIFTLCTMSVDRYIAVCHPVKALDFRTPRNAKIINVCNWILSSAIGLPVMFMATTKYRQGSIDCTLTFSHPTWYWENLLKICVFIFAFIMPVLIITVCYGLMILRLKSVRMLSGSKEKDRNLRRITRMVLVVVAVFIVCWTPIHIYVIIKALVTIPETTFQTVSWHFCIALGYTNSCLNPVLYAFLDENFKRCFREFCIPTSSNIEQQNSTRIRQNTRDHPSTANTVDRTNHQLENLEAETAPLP

| SMILES | IC50 |
| --- | --- |
| COC(=O)/C=C/C(=O)N[C@@H]1CC[C@@]2(O)[C@H]3Cc4ccc(O)c5c4[C@@]2(CCN3CC2CC2)[C@H]1O5 [Beta-FNA] | 2.62 nM |
| C=CCN1CC[C@]23c4c5ccc(O)c4O[C@H]2[C@@H](OCCOCCOCCOCCO[C@H]2CC[C@@]4(O)[C@H]6Cc7ccc(O)c8c7[C@@]4(CCN6CC=C)[C@H]2O8)CC[C@@]3(O)[C@H]1C5 [(α,α)-NAL24, double-end substituted tetraethylene glycol-naloxone] | 7.16 nM |

— patent publication US8962647B1, “Conjugate of polyethylene gylcol and naloxone and pharmaceutical composition and use thereof” (Jenkem Technology Co., Ltd. (Tianjin), priority 2012, dated 2015)
